These results are taken from patent US20230123334A1, “AMINO LIPID COMPOUND, PREPARATION METHOD THEREFOR, AND APPLICATION THEREOF” (SHENZHEN SHENXIN BIOTECHNOLOGY CO., LTD., priority 2020, published 2023).

Structures are written as SMILES.

In test [1] the test system is HEK293 cells. Kind of test: Preliminary screening as mRNA vectors, EGFP mRNA transfection of HEK293 cells. Type of test: cell-based. As to conditions: HEK293 cells, 96-well plates, EGFP mRNA 50 ng per well; percentage of GFP fluorescent cells relative to total number of cells (Hoechst). In outline:
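Each well of HEK293 cells received 50 ng of EGFP mRNA. Efficiency was expressed as percent GFP-expressing cells over Hoechst-defined total cell number.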

Test [2] has as its system HEK293 cells. Kind of test: Preliminary screening as DNA vectors, GFP transfection of HEK293 cells. Type of test: cell-based. As to conditions: HEK293 cells; lipid/DOPE liposome with 75 ng plasmid DNA (psin-EGFP-IRES-Puro); number of cells expressing GFP divided by total number of nuclei (Hoechst). In outline:
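Lipid + DOPE liposomes (NaOAc, pH 5.6) complexed w/ 75 ng psin-EGFP-IRES-Puro, 30 min RT; added to 3-5×10^4 HEK293/well, 37° C. Hoechst 0.2 μg/mL at 20-24 h, imaged after further 20-24 h. Efficiency = GFP+ cells / total nuclei.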

For the compound `CCCCCCCCCCCCCCSc1nc(NCCN(CC)CC)nc(SCCCCCCCCCCC)n1` [Compound S11S14D7], the “Absolute mRNA transfection efficiency in HEK293 cells” value (shortened to “Absolute mRNA transfection efficiency”) in test [1] worked out at 0.7%. Also, the “Absolute DNA transfection efficiency in HEK293 cells” value (from here on “Absolute DNA transfection efficiency”) in test [2] came to 2.9%.

As for `CCCCCCCCCCCCCCSc1nc(NCCCN2CCOCC2)nc(SCCCCCCCCCCC)n1` [Compound S11S14D8], the “Absolute mRNA transfection efficiency” value in test [1] was 4.2%. The “Absolute DNA transfection efficiency” value in test [2] came to 8.8%.

Consider `CCCCCCCCCCCCCCSc1nc(NCCCN2CCN(C)CC2)nc(SCCCCCCCCCCC)n1` [Compound S11S14D9], for which the “Absolute mRNA transfection efficiency” value in test [1] was 9.9%. In addition, the “Absolute DNA transfection efficiency” value in test [2] is 4.1%.

With `CCCCCCCCCCCCCCSc1nc(NCC2CCN(C)CC2)nc(SCCCCCCCCCCC)n1` [Compound S11S14D10], the “Absolute mRNA transfection efficiency” value in test [1] amounted to 38.5%. Further, in test [2], the “Absolute DNA transfection efficiency” value amounted to 58.1%.

As to `CCCCCCCCCCCCCCCSc1nc(NCCN(C)C)nc(SCCCCCCCCCCC)n1` [Compound S11S15D1], the “Absolute mRNA transfection efficiency” value in test [1] is 0.0%. Also, the “Absolute DNA transfection efficiency” value in test [2] is listed as 0.9%.

On to `CCCCCCCCCCCCCCCSc1nc(NCCN2CCOCC2)nc(SCCCCCCCCCCC)n1` [Compound S11S15D2], for which, in test [1], the “Absolute mRNA transfection efficiency” value came out at 0.0%. In test [2], the “Absolute DNA transfection efficiency” value is reported as 0.3%.

With `CCCCCCCCCCCCCCCSc1nc(NCCN2CCCC2)nc(SCCCCCCCCCCC)n1` [Compound S11S15D3], the “Absolute mRNA transfection efficiency” value in test [1] stood at 5.3%. The “Absolute DNA transfection efficiency” value in test [2] came to 7.4%.

Consider `CCCCCCCCCCCCCCCSc1nc(NCCN2CCCCC2)nc(SCCCCCCCCCCC)n1` [Compound S11S15D4], for which the “Absolute mRNA transfection efficiency” value in test [1] came to 0.9%. Besides, the “Absolute DNA transfection efficiency” value in test [2] turned out to be 5.3%.

With `CCCCCCCCCCCCCCCSc1nc(NCCN2CCN(C)CC2)nc(SCCCCCCCCCCC)n1` [Compound S11S15D5], the “Absolute mRNA transfection efficiency” value in test [1] amounted to 17.4%. Besides, in test [2], the “Absolute DNA transfection efficiency” value is given as 4.8%.

In the case of `CCCCCCCCCCCCCCCSc1nc(NCCCN(C)C)nc(SCCCCCCCCCCC)n1` [Compound S11S15D6], the “Absolute mRNA transfection efficiency” value in test [1] stood at 15.4%. In addition, the “Absolute DNA transfection efficiency” value in test [2] came to 4.8%.

Consider `CCCCCCCCCCCCCCCSc1nc(NCCN(CC)CC)nc(SCCCCCCCCCCC)n1` [Compound S11S15D7], for which the “Absolute mRNA transfection efficiency” value in test [1] is 0.7%. For the same compound, the “Absolute DNA transfection efficiency” value in test [2] is 5.3%.

In the case of `CCCCCCCCCCCCCCCSc1nc(NCCCN2CCOCC2)nc(SCCCCCCCCCCC)n1` [Compound S11S15D8], the “Absolute mRNA transfection efficiency” value in test [1] came to 2.1%. The “Absolute DNA transfection efficiency” value in test [2] was 3.0%.

As for `CCCCCCCCCCCCCCCSc1nc(NCCCN2CCN(C)CC2)nc(SCCCCCCCCCCC)n1` [Compound S11S15D9], the “Absolute mRNA transfection efficiency” value in test [1] is reported as 3.6%. For the same compound, the “Absolute DNA transfection efficiency” value in test [2] is listed as 1.8%.

For `CCCCCCCCCCCCCCCSc1nc(NCC2CCN(C)CC2)nc(SCCCCCCCCCCC)n1` [Compound S11S15D10], in test [1], the “Absolute mRNA transfection efficiency” value came to 75.9%. The “Absolute DNA transfection efficiency” value in test [2] came out at 42.3%.

Take `CCCCCCCCCCCCCCCCSc1nc(NCCN(C)C)nc(SCCCCCCCCCCC)n1` [Compound S11S16D1]: the “Absolute mRNA transfection efficiency” value in test [1] amounted to 2.4%. Also, the “Absolute DNA transfection efficiency” value in test [2] is 0.5%.

In the case of `CCCCCCCCCCCCCCCCSc1nc(NCCN2CCOCC2)nc(SCCCCCCCCCCC)n1` [Compound S11S16D2], in test [1], the “Absolute mRNA transfection efficiency” value came out at 0.1%. For the same compound, the “Absolute DNA transfection efficiency” value in test [2] turned out to be 0.0%.

For `CCCCCCCCCCCCCCCCSc1nc(NCCN2CCCC2)nc(SCCCCCCCCCCC)n1` [Compound S11S16D3], in test [1], the “Absolute mRNA transfection efficiency” value amounted to 0.7%. Besides, the “Absolute DNA transfection efficiency” value in test [2] is reported as 6.2%.

Consider `CCCCCCCCCCCCCCCCSc1nc(NCCN2CCCCC2)nc(SCCCCCCCCCCC)n1` [Compound S11S16D4], for which the “Absolute mRNA transfection efficiency” value in test [1] came to 0.2%. Also, in test [2], the “Absolute DNA transfection efficiency” value is recorded as 1.7%.

Consider `CCCCCCCCCCCCCCCCSc1nc(NCCN2CCN(C)CC2)nc(SCCCCCCCCCCC)n1` [Compound S11S16D5], for which the “Absolute mRNA transfection efficiency” value in test [1] is listed as 5.1%. The “Absolute DNA transfection efficiency” value in test [2] was found to be 4.9%.

Consider `CCCCCCCCCCCCCCCCSc1nc(NCCCN(C)C)nc(SCCCCCCCCCCC)n1` [Compound S11S16D6], for which the “Absolute mRNA transfection efficiency” value in test [1] is reported as 9.3%. The “Absolute DNA transfection efficiency” value in test [2] is reported as 2.7%.

`CCCCCCCCCCCCCCCCSc1nc(NCCN(CC)CC)nc(SCCCCCCCCCCC)n1` [Compound S11S16D7]: the “Absolute mRNA transfection efficiency” value in test [1] was 0.5%. In test [2], the “Absolute DNA transfection efficiency” value was 2.2%.

For the compound `CCCCCCCCCCCCCCCCSc1nc(NCCCN2CCOCC2)nc(SCCCCCCCCCCC)n1` [Compound S11S16D8], in test [1], the “Absolute mRNA transfection efficiency” value is listed as 0.9%. In addition, the “Absolute DNA transfection efficiency” value in test [2] worked out at 4.7%.

For `CCCCCCCCCCCCCCCCSc1nc(NCCCN2CCN(C)CC2)nc(SCCCCCCCCCCC)n1` [Compound S11S16D9], in test [1], the “Absolute mRNA transfection efficiency” value worked out at 16.4%. Further, the “Absolute DNA transfection efficiency” value in test [2] came out at 3.6%.

Consider `CCCCCCCCCCCCCCCCSc1nc(NCC2CCN(C)CC2)nc(SCCCCCCCCCCC)n1` [Compound S11S16D10], for which the “Absolute mRNA transfection efficiency” value in test [1] came out at 89.2%. In addition, the “Absolute DNA transfection efficiency” value in test [2] turned out to be 49.0%.

In the case of `CCCCCCCCCCCCCCCCCCSc1nc(NCCN(C)C)nc(SCCCCCCCCCCC)n1` [Compound S11S18D1], the “Absolute mRNA transfection efficiency” value in test [1] was 2.7%. In test [2], the “Absolute DNA transfection efficiency” value is reported as 0.6%.

On to `CCCCCCCCCCCCCCCCCCSc1nc(NCCN2CCOCC2)nc(SCCCCCCCCCCC)n1` [Compound S11S18D2], for which the “Absolute mRNA transfection efficiency” value in test [1] turned out to be 0.1%. Besides, in test [2], the “Absolute DNA transfection efficiency” value stood at 0.2%.

On to `CCCCCCCCCCCCCCCCCCSc1nc(NCCN2CCCC2)nc(SCCCCCCCCCCC)n1` [Compound S11S18D3], for which, in test [1], the “Absolute mRNA transfection efficiency” value was determined as 11.6%. Also, in test [2], the “Absolute DNA transfection efficiency” value is listed as 4.8%.

`CCCCCCCCCCCCCCCCCCSc1nc(NCCN2CCCCC2)nc(SCCCCCCCCCCC)n1` [Compound S11S18D4]: the “Absolute mRNA transfection efficiency” value in test [1] is reported as 1.4%. Also, the “Absolute DNA transfection efficiency” value in test [2] is recorded as 3.3%.

In the case of `CCCCCCCCCCCCCCCCCCSc1nc(NCCN2CCN(C)CC2)nc(SCCCCCCCCCCC)n1` [Compound S11S18D5], the “Absolute mRNA transfection efficiency” value in test [1] is 3.8%. The “Absolute DNA transfection efficiency” value in test [2] was 1.7%.

`CCCCCCCCCCCCCCCCCCSc1nc(NCCCN(C)C)nc(SCCCCCCCCCCC)n1` [Compound S11S18D6]: the “Absolute mRNA transfection efficiency” value in test [1] came out at 6.0%. The “Absolute DNA transfection efficiency” value in test [2] stood at 3.6%.

Turning to `CCCCCCCCCCCCCCCCCCSc1nc(NCCN(CC)CC)nc(SCCCCCCCCCCC)n1` [Compound S11S18D7], in test [1], the “Absolute mRNA transfection efficiency” value was 1.1%. Besides, the “Absolute DNA transfection efficiency” value in test [2] is on record as 3.6%.

With `CCCCCCCCCCCCCCCCCCSc1nc(NCCCN2CCOCC2)nc(SCCCCCCCCCCC)n1` [Compound S11S18D8], the “Absolute mRNA transfection efficiency” value in test [1] is recorded as 3.3%. Moreover, the “Absolute DNA transfection efficiency” value in test [2] was determined as 7.8%.
